Key:
[1] = Light stability of SnET2 solid forms under visible light irradiation (XRPD and HPLC); type: physicochemical; conditions: for XRPD Result / Impurity Levels by HPLC Peak 1 (photooxidized product) / Impurity Levels by HPLC Peak 2 / Impurity Levels by HPLC Peak 3: solid
Description: Comparative stability studies were performed on crystalline Form I, crystalline Form II, disordered Form II and the amorphous form. Light stability studies were carried out in a closed, black 30×16×12 inch cabinet containing two 24-inch, 20-watt fluorescent bulbs as the light source. The samples were placed approximately 10 inches from the bulbs. Each sample consisted of approximately 30-mg of SnET2 in a 1-dram vial. Samples were removed at the time intervals indicated in Table 11, analyzed by XRPD and HPLC.

[2] = Relative thermodynamic stability of crystalline forms (slurry interconversion, XRPD); type: physicochemical; conditions: slurrying in dichloromethane, acetone and mixtures, ambient or 50° C.
Excerpt: Unsolvated, anhydrous, polymorphic forms of a compound differ in their free energies. A set of polymorphs may be ranked in order of thermodynamic stability under a given set of pressure and temperature conditions. […] Production of the stable form is said to occur under thermodynamic conditions. […] Phys. Chem. 22:306 (1897)]. […] Kinetic and thermodynamic conditions differ in the amount of energy utilized. While the absolute amount depends on the compound in question, relatively speaking, kinetic conditions involve lower temperatures and shorter reaction times while thermodynamic conditions involve higher temperatures and longer reaction times.
Under subdued lighting, a slurry containing a 1:1 mixture of SnET2 crystalline Form I and SnET2 crystalline Form II (100-200 mg each) in 1-3 mL of a solvent, listed in Table 13 below, was agitated in a tightly-capped tube at ambient temperature or at 50° C. The undissolved solid was collected by filtration and found, by XRPD analysis, to be crystalline Form II.

[3] = visible light (two 20-watt fluorescent bulbs, approx. 10 inches), 0 days
[4] = visible light irradiation, 0 days
[5] = visible light irradiation, 2 days
[6] = visible light irradiation, 4 days
[7] = visible light irradiation, 6 days
[8] = visible light irradiation, 8 days
[9] = visible light irradiation, 19 days
[10] = visible light irradiation, 29 days

Row | Substance | XRPD Result [1, 3] | Impurity Levels by HPLC Peak 1 (photooxidized product) [1, 4] | Impurity Levels by HPLC Peak 2 [1, 4] | Impurity Levels by HPLC Peak 3 [1, 4] | Impurity Levels by HPLC Peak 1 (photooxidized product) [1, 5] | Impurity Levels by HPLC Peak 2 [1, 5] | Impurity Levels by HPLC Peak 3 [1, 5] | XRPD Result [1, 5] | Impurity Levels by HPLC Peak 1 (photooxidized product) [1, 6] | Impurity Levels by HPLC Peak 2 [1, 6] | Impurity Levels by HPLC Peak 3 [1, 6] | XRPD Result [1, 6] | Impurity Levels by HPLC Peak 1 (photooxidized product) [1, 7] | Impurity Levels by HPLC Peak 2 [1, 7] | Impurity Levels by HPLC Peak 3 [1, 7] | XRPD Result [1, 7] | Impurity Levels by HPLC Peak 1 (photooxidized product) [1, 8] | Impurity Levels by HPLC Peak 2 [1, 8] | Impurity Levels by HPLC Peak 3 [1, 8] | XRPD Result [1, 8] | also measured
1 | Tin ethyl etiopurpurin [Amorphous] | Amorphous | 1.62 | 0.70 | 0.00 | 6.60 | 0.71 | 0.03 | Amorphous | 9.78 | 0.73 | 0.15 | Amorphous | 1.84 | 0.11 | 0.23 | Amorphous | 12.66 | 0.70 | 0.27 | Amorphous | rate of photoproduct formation by HPLC ([1]; exposed to visible light, compared with the other solid forms): produced more rapidly in the amorphous form than any other form; Impurity Levels by HPLC Peak 1 (photooxidized product) [1, 9]: 14.13; Impurity Levels by HPLC Peak 2 [1, 9]: 0.73; Impurity Levels by HPLC Peak 3 [1, 9]: 0.38; XRPD Result [1, 9]: Amorphous; Impurity Levels by HPLC Peak 1 (photooxidized product) [1, 10]: 18.72; Impurity Levels by HPLC Peak 2 [1, 10]: 0.76; Impurity Levels by HPLC Peak 3 [1, 10]: 0.38; XRPD Result [1, 10]: Amorphous
2 | Tin ethyl etiopurpurin [Crystalline Form I] | Crystalline | 0.20 | 0.15 | 0.0 | 0.89 | 0.16 | 0.0 | Crystalline | 9.61 | 0.84 | 0.0 | Crystalline | 2.16 | 0.14 | 0.09 | Crystalline | 1.87 | 0.15 | 0.13 | Crystalline | Impurity Levels by HPLC Peak 1 (photooxidized product) [1, 9]: 2.39; Impurity Levels by HPLC Peak 2 [1, 9]: 0.34; Impurity Levels by HPLC Peak 3 [1, 9]: 0.17; XRPD Result [1, 9]: Crystalline; Impurity Levels by HPLC Peak 1 (photooxidized product) [1, 10]: 4.47; Impurity Levels by HPLC Peak 2 [1, 10]: 0.11; Impurity Levels by HPLC Peak 3 [1, 10]: 0.21; XRPD Result [1, 10]: Crystalline
3 | Tin ethyl etiopurpurin [Disordered Form II] | Disordered FII | 0.65 | 0.10 | 0.19 | 1.24 | 0.13 | 0.19 | Disordered FII | 1.98 | 0.09 | 0.27 | Disordered FII | 2.51 | 0.11 | 0.28 | Disordered FII | 1.77 | 0.12 | 0.28 | Disordered FII | Impurity Levels by HPLC Peak 1 (photooxidized product) [1, 9]: 3.54; Impurity Levels by HPLC Peak 2 [1, 9]: 0.06; Impurity Levels by HPLC Peak 3 [1, 9]: 0.32; XRPD Result [1, 9]: Disordered FII; Impurity Levels by HPLC Peak 1 (photooxidized product) [1, 10]: 4.92; Impurity Levels by HPLC Peak 2 [1, 10]: 0.10; Impurity Levels by HPLC Peak 3 [1, 10]: 0.51; XRPD Result [1, 10]: Disordered FII
4 | Tin ethyl etiopurpurin [Crystalline Form II] | Crystalline | 0.00 | 0.23 | 0.00 | 0.44 | 0.23 | 0.04 | Crystalline | 0.56 | 0.24 | 0.09 | Crystalline | 0.82 | 0.21 | 0.10 | Crystaliine | 0.96 | 0.21 | 0.15 | Crystalline | Impurity Levels by HPLC Peak 1 (photooxidized product) [1, 9]: 1.12; Impurity Levels by HPLC Peak 2 [1, 9]: 0.18; Impurity Levels by HPLC Peak 3 [1, 9]: 0.14; XRPD Result [1, 9]: Crystalline; Impurity Levels by HPLC Peak 1 (photooxidized product) [1, 10]: 1.68; Impurity Levels by HPLC Peak 2 [1, 10]: 0.17; Impurity Levels by HPLC Peak 3 [1, 10]: 0.11; XRPD Result [1, 10]: Crystalline; relative (thermodynamic) stability of crystalline forms [2]: thermodynamically more stable form; relative (thermodynamic) stability of crystalline forms ([2]; listed as crystalline Form II): more stable than crystalline Form I

— US6605606B1, “Solid forms of tin ethyl etiopurpurin and processes for producing such forms” (Miravant Pharmaceuticals, Inc., priority 2000, dated 2003)
